According to patent US10596094B2, “Compositions and methods for reducing skin pigmentation” (Yale University, priority 2013, dated 2020):

Columns and labels:
[1] = system: human melanocyte-keratinocyte co-cultures; test: EBL/SNA lectin staining of melanocyte-keratinocyte co-cultures; format: cell-based; settings: L-cytidine 25 micromolar, 72 h, vs untreated (FIG. 5)
Experimental: Primary neonatal normal human keratinocytes (NHKs) (Invitrogen, Life Technologies, Grand Island, N.Y.) were seeded at a density of 5×10^5 cells/well into 4-well collagen coated chamber slides (Fisher Scientific, Waltham, Mass.). Cells were maintained in 1 ml of serum-free keratinocyte growth medium (KGM) (Keratinocyte-SFM, Invitrogen) and incubated for 48 h in 5% CO2 incubator. The complete KGM was prepared by adding KGM Singlequots (Lonza). Darkly pigmented human neonatal epidermal melanocytes (HEM-DP) (Invitrogen) were seeded over keratinocytes at 2.5×10^5 cells/well and incubated for 24 h at 37° C. The KGM was replaced with 1 ml of melanocyte growth medium (MGM) (Invitrogen), and the co-cultures were incubated for another 48 hours. The co-cultures were treated with the inhibitors at indicated concentrations in a final volume of 20 microliter/well in triplicate for 72 h. The cells were gently washed with 1× phosphate buffered saline (PBS) and fixed in 4% Paraformaldehyde (PFA) for 20 minutes at room temperature. […] The slides were air dried and mounted on cover slips and the images were captured in tiff format using fluorescence microscope (Nikon) and analyzed.

[2] = system: melanocyte-keratinocyte co-cultures; test: Fontana-Masson silver stain for melanin in melanocyte-keratinocyte co-cultures; format: cell-based, human; settings: 50 micromolar, 72 h (FIG. 7)
Experimental: Primary neonatal normal human keratinocytes (NHKs) (Invitrogen, Life Technologies, Grand Island, N.Y.) were seeded at a density of 5×10^5 cells/well into 4-well collagen coated chamber slides (Fisher Scientific, Waltham, Mass.). Cells were maintained in 1 ml of serum-free keratinocyte growth medium (KGM) (Keratinocyte-SFM, Invitrogen) and incubated for 48 h in 5% CO2 incubator. The complete KGM was prepared by adding KGM Singlequots (Lonza). Darkly pigmented human neonatal epidermal melanocytes (HEM-DP) (Invitrogen) were seeded over keratinocytes at 2.5×10^5 cells/well and incubated for 24 h at 37° C. The KGM was replaced with 1 ml of melanocyte growth medium (MGM) (Invitrogen), and the co-cultures were incubated for another 48 hours. The co-cultures were treated with the inhibitors at indicated concentrations in a final volume of 20 microliter/well in triplicate for 72 h. The cells were gently washed with 1× phosphate buffered saline (PBS) and fixed in 4% Paraformaldehyde (PFA) for 20 minutes at room temperature.
Silver staining for melanin was performed according to the instructions provided with the Fontana-Masson staining kit (American MasterTech, Lodi, Calif.). Cells grown in collagen-coated chamber slides were fixed in 4% PFA and rinsed with water for 5 minutes to remove traces of PBS. Slides were then placed in ammonical silver solution followed by incubation in solutions of 0.1% gold chloride, 5% sodium thiosulfate, rinsed in running tap water to remove the staining solution, and dehydrated through 3 changes of fresh absolute alcohol. Cleared slides were rinsed through 3 changes of fresh xylene and coverslips were applied with mounting medium.

[3] = system: human melanocyte-keratinocyte co-cultures; test: Melanin assay (solubilized melanin, spectrophotometry) in melanocyte-keratinocyte co-cultures; format: cell-based; settings: for Minimal concentration for >80% inhibition of melanin content: single agents, 72 h, data from FIG. 8A
Experimental: Cells were plated on 24-well plates at 2×10^5 cells/well and treated with various inhibitors in triplicate. Media were replaced with fresh inhibitor-containing media every 24 h. After 72 h, cells were lysed with cell lysis buffer (Invitrogen) containing protease inhibitor cocktail and PMSF (phenylmethyl sulfonyl fluoride) and incubated for 20 minutes on ice. […] From the same samples, the supernatants were saved for measurement of dopa oxidase activity and the pellets were evaluated for melanin content.
Melanin was extracted following a previously described procedure (Ni-Komatsu, et al., 2005, Pigment Cell Res 18(6),447-453). […] The melaninextracts (100 μl) were transferred to a 96-well plate and total melanin content quantitated with a M5 Spectramax plate reader (490 nm).
Dose response curves were assessed for Bliss Additivity and synergism as described (Fitzgerald et al., 2006, Nat Chem Biol 2:458-466; Ritz, C. & Streibig, J. C. (2005) Bioassay Analysis using R. J. Statist. Software, Vol 12, Issue 5). For comparisons of melanin content and tyrosinase/dopa oxidase activity in treated vs. untreated cultures, P-values were determined by the Welch Two Sample t-test.

[4] = target: EBL/SNA (Sambucus nigra, UniProt Q41358); settings: Shibuya et al, 1987; Kaku et al, 2007; cited from earlier work
Chain of EBL/SNA (Q41358 309-570 limits assumed): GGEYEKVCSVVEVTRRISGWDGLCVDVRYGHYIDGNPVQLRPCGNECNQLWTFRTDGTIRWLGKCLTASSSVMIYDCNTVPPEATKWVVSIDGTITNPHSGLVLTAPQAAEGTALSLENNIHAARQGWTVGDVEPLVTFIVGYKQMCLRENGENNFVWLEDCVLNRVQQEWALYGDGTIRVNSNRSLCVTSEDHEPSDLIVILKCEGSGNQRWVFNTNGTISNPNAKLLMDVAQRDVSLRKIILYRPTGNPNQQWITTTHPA
Chain of EBL/SNA (Q41358 29-289 partner limits assumed): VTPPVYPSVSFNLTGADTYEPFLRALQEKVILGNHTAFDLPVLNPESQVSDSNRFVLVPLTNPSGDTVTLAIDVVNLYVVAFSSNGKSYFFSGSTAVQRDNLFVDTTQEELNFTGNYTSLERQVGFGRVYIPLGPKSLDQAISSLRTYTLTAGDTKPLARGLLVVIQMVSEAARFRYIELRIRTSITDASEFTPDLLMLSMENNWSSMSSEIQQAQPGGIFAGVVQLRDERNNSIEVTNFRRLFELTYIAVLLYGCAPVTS

Compound	EBL staining [1]	melanin content (Fontana-Masson silver staining) [2]	melanin content compared to untreated cultures ([3]; 50 micromolar, 72 h (FIG. 6))	Minimal concentration for >80% inhibition of melanin content [3] [µM]	inhibition of EBL-mediated precipitation of glycophorin [4]
Nc1ccn([C@@H]2O[C@H](CO)[C@@H](O)[C@H]2O)c(=O)n1 [cytidine]	markedly reduced	reduced melanin content	–	–	–
Neu5Ac(α2,3)Gal(β1-4)Glc [3′-SL]	–	reduced melanin content	strongest reduction of the three	30	poor inhibitor
Neu5Ac(α2,6)Gal(β1-4)Glc [6′-SL]	–	reduced melanin content	–	30	strong inhibitor
